Experimental findings from patent US5196418A, “Hemicholinium lipids and use thereof” (Board of Supervisors, Louisiana State University …, priority 1992, dated 1993) are described below.

The test system of one assay is cell-cell aggregation. In words: Inhibition of cell-cell aggregation (method of Fritz et al.). The assay is classed as cell-based. The text has this:
Cell-cell aggregation studies by the method of Fritz et al., J. CeII.

For assay [1], the target named is T1, CPT-II (Bos taurus, UniProt Q2KJB7).
T1 construct: CPT-II was prepared from beef liver; from tissue; host or cells: beef liver
T1 sequence (Q2KJB7 26-658): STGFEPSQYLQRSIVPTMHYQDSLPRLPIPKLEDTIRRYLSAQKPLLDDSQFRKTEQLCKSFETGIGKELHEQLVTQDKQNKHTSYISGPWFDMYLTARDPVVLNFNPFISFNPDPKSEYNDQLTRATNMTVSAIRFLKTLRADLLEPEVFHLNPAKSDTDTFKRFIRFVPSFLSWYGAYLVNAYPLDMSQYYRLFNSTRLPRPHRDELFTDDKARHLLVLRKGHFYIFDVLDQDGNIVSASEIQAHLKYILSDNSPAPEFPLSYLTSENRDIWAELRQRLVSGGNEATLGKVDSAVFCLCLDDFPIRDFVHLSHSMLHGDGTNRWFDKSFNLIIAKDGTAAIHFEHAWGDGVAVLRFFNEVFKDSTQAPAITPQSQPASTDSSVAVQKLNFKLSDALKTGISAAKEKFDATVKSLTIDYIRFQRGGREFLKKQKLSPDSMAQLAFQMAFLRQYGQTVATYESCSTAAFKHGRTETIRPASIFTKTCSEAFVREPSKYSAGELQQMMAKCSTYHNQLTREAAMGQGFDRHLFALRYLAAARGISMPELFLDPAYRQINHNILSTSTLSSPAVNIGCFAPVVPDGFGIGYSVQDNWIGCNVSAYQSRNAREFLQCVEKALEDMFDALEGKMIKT
Briefly: CPT inhibition (spectrophotometric assay, CPT-II prepared from beef liver). Particulars: CPT-II from beef liver, 10 μM decanoyl-CoA, L-carnitine 1 mM and 5 mM, pH 7.4, 30° C. The assay is classed as biochemical. The method, then: (§1) Preparation: CPT-II was prepared from beef liver using the methods of P. R. H. Clarke and L. L. Bieber (1981) J. Biol. Chem., 256. 9861-9868.
(§2) In final volume of 1 ml, 20 mm KPO4^-, pH 7.4 at 30° C., 125 μM aldrithiol [4,4-dithio(bis)pyridine], 10 μM decanoyl-CoA, 10 μl enzyme (1.25 μg/ml) and inhibitor were preincubated at 30° C. for 1 min. and the reaction was initiated with L-carnitine. The absorbance change at 324 nm, followed in a spectrophotometer, was linear with time. L-carnitine conc. were 1 mM and 5 mM. H15C conc. ranged from 1.25 μM-12.5 μM (6values).

Assay [2] deals with CPT-II. The description is as above. Particulars: Ki 2 μM versus 10.4 μM. It is filed as biochemical. The method, then:
as §1, §2

As to `CCCCCCCCCCCCCCCCC1(O)C[N+](C)(C)CCO1` (racemic) [Example 3, 2-Hexadecyl-2-hydroxy-4,4-dimethylmorpholinium Bromide], the affinity in the assay with cell-cell aggregation, expressed as Ki, was 400 nM.
On the same count and under the same terms, to `CCCCCCCCCCCCCCC1(O)C[N+](C)(C)CCO1` (racemic) [Example 5, 2-Hydroxy-4,4-dimethyl-2,-tetradecylmorpholinium Bromide] belongs 1500 nM.
On the same count and under the same terms, the value for `CCCCCCCCCCCCC1(O)C[N+](C)(C)CCO1` (racemic) [Example 7, 2-Dodecyl-2-hydroxy-4,4-dimethylmorpholinium Bromide] was 12000 nM.
With `CCCCCCCCCCCCCCCC1(O)C[N+](C)(C)CCO1.[Br-]` (stereo not shown) [Example 4, 2Hydroxy-4,4-dimethyl-2-pentadecylmorpholinium Bromide], the figures for the Ki on CPT-II [1] and in the assay on cell-cell aggregation were 2000 nM and 400 nM, respectively. Further, the “binding strength relative to palmitoylcholine (from Ki against CPT)” value at CPT-II [2] was “five-fold stronger binding”.
As to `CCCCCCCCCCCCCCCC(=O)C[N+](C)(C)CCCO` [Example 9, N-(3-Hydroxypropyl)-N,N-dimethyl-N-(2-oxoheptadecyl)ammonium Bromide], the Ki (usually a dissociation constant, usually derived from enzyme kinetics or from competition with a known ligand) with cell-cell aggregation came to 750 nM.
